Source: patent US20250197409A1, “BIFUNCTIONAL COMPOUND AND PHARMACEUTICAL COMPOSITION COMPRISING THE BIFUNCTIONAL COMPOUND, AND METHOD FOR TREATING ANDROGEN RECEPTOR RELATED DISEASE BY USING THE SAME” (ANHORN MEDICINES CO., LTD., priority 2022, published 2025)
Like-named read-outs stand apart in the source and are kept apart here.

Target: T1, androgen receptor (Homo sapiens, UniProt P10275, T878A)
T1 construct: host or cells: LNCaP.FGC
Assay: Androgen receptor degradation assay using Western blot analysis
Type: cell-based
Summary of the method: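 LNCaP.FGC cells (2×10^5/well) treated with 10-fold serial dilutions in RPMI from 100 nM stock; untreated cells as negative control. AR Western signal normalized to GAPDH, expressed as % remaining versus untreated (100%). DC50 derived from calibration curve of serial dilutions.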

[1] = read-out: AR DC50 (concentration needed for 50% AR degradation); LNCaP.FGC cells, serial 10x dilutions from 100 nM
[2] = 24 h, read-out: Androgen Receptor Remaining (%), LNCaP.FGC cells, 100 nM, 24 hr, normalized to GAPDH, untreated cells = 100%
[3] = 24 h, LNCaP.FGC cells, 100 nM, 24 hr, normalized to GAPDH, untreated cells = 100%; read-out: Androgen Receptor Remaining (%)
[4] = LNCaP.FGC cells, serial 10x dilutions from 100 nM; read-out: AR DC50 (concentration needed for 50% AR degradation)

T1 sequence (P10275 whole entry T878A): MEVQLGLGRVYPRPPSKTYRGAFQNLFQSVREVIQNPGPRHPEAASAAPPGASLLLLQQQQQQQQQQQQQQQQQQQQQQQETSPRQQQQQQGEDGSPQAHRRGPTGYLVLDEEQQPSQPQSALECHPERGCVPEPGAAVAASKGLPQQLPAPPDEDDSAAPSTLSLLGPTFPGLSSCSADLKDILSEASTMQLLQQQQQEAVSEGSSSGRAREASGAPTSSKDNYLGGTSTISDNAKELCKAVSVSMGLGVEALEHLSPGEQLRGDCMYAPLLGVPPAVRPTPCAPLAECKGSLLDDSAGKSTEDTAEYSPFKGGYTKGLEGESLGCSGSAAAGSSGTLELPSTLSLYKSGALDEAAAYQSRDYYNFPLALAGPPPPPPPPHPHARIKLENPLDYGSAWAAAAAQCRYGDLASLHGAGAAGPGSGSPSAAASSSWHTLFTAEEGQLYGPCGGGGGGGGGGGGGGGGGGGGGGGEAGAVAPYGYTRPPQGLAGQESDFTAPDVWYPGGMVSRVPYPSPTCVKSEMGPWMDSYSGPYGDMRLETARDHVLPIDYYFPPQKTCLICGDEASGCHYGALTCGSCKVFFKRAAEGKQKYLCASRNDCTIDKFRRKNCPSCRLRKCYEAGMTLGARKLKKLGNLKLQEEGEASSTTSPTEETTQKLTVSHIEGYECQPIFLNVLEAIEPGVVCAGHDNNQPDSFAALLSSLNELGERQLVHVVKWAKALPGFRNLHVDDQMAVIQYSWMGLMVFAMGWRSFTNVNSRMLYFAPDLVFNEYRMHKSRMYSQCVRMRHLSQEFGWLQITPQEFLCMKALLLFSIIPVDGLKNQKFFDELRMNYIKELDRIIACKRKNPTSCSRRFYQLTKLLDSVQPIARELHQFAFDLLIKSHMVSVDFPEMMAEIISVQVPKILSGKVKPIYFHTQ
T1 sequence (Q96SW2 whole entry partner): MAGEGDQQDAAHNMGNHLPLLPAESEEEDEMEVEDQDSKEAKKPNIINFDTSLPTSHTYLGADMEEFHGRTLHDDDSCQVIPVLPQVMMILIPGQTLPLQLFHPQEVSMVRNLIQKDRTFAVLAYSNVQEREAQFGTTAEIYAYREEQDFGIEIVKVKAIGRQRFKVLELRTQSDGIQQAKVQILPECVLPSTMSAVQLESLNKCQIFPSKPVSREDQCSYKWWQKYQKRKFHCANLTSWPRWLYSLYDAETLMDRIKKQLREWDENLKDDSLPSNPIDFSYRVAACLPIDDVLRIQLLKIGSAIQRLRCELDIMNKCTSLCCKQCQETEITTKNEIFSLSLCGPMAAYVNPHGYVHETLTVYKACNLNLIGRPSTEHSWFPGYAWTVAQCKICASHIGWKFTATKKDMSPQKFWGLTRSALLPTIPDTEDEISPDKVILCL

Structure (SMILES)	DC50 [1] [nM]	remaining activity at 0.1 µM [2] [%]	remaining activity at 0.1 µM [3] [%]	DC50 [4] [nM]
CCn1c2c(c3ccc(OC4CCN(CC5CCN(c6ccc(C(=O)N[C@H]7CC[C@H](Oc8ccc(C#N)c(Cl)c8)CC7)nn6)CC5)CC4)cc31)C(=O)N(C1CCC(=O)NC1=O)C2=O (some centres unmarked) [Compound 203]	< 10			
CCn1c2c(c3ccc(OCC(=O)N4CC5(CCN(c6ccc(C(=O)N[C@H]7CC[C@H](Oc8ccc(C#N)c(Cl)c8)CC7)nn6)CC5)C4)cc31)C(=O)N(C1CCC(=O)N(CO)C1=O)C2=O (some centres unmarked) [Compound 126]		58		
N#Cc1ccc(O[C@H]2CC[C@H](NC(=O)c3ccc(N4CCN(CCCOc5ccc6c7c(n(CC(F)F)c6c5)C(=O)N(C5CCC(=O)NC5=O)C7=O)CC4)nn3)CC2)cc1Cl (some centres unmarked) [Compound 82]	25 to 100	35		
CCn1c2c(c3ccc(OCC(=O)N4CCC5(CC4)CN(c4ccc(C(=O)N[C@H]6CC[C@H](Oc7ccc(C#N)c(Cl)c7)CC6)nn4)C5)cc31)C(=O)N(C1CCC(=O)N(CO)C1=O)C2=O (some centres unmarked) [Compound 122]	> 100	33		
Cn1c2c(c3ccc(NC(=O)CN4CCN(c5ccc(C(=O)N[C@H]6C(C)(C)[C@H](Oc7ccc(C#N)c(Cl)c7)C6(C)C)nn5)CC4)cc31)C(=O)N(C1CCC(=O)NC1=O)C2=O (some centres unmarked) [Compound 50]			45	25 to 100
Cn1c2c(c3ccc(OCCN4CC=C(c5ccc(C(=O)N[C@H]6CC[C@H](Oc7ccc(C#N)c(Cl)c7)CC6)nn5)CC4)cc31)C(=O)N(C1CCC(=O)NC1=O)C2=O (some centres unmarked) [Compound 197]				10 to 25
CCn1c2c(c3ccc(OCCN4C[C@H](C)N(c5ccc(C(=O)N[C@H]6CC[C@H](Oc7ccc(C#N)c(Cl)c7)CC6)nn5)C[C@H]4C)cc31)C(=O)N(C1CCC(=O)NC1=O)C2=O (some centres unmarked) [Compound 55]	25 to 100	40		
CCn1c2c(c3ccc(OCC(=O)N4CC5(CCN(c6ccc(C(=O)N[C@H]7CC[C@H](N(C)c8ccc(C#N)c(Cl)c8)CC7)nn6)C5)C4)cc31)C(=O)N(C1CCC(=O)N(CO)C1=O)C2=O (some centres unmarked) [Compound 145]		62		
CCn1c2c(c3ccc(OCCCOC4CC5(CCN(c6ccc(C(=O)N[C@H]7CC[C@H](Oc8ccc(C#N)c(Cl)c8)CC7)nn6)C5)C4)cc31)C(=O)N(C1CCC(=O)NC1=O)C2=O (some centres unmarked) [Compound 176]	25 to 100			
CCn1c2c(c3ccc(OCC(=O)NCC4CCN(c5ccc(C(=O)N[C@H]6CC[C@H](N(C)c7ccc(C#N)c(Cl)c7)CC6)nn5)CC4)cc31)C(=O)N(C1CCC(=O)C(CO)C1=O)C2=O (some centres unmarked) [Compound 141]	25 to 100	49		
CCn1c2c(c3ccc(OCCOCC4CCN(c5ccc(C(=O)N[C@H]6CC[C@H](N(C)c7ccc(C#N)c(Cl)c7)CC6)nn5)CC4)cc31)C(=O)N(C1CCC(=O)NC1=O)C2=O (some centres unmarked) [Compound 137]	25 to 100	1		
CCn1c2c(c3ccc(OCCN4CCC5(C4)CN(c4ccc(C(=O)N[C@H]6CC[C@H](Oc7ccc(C#N)c(Cl)c7)CC6)nn4)C5)cc31)C(=O)N(C1CCC(=O)NC1=O)C2=O (some centres unmarked) [Compound 161]	10 to 25	31		
CCn1c2c(c3ccc(OC(=O)NC4CCN(c5ccc(C(=O)N[C@H]6CC[C@H](N(C)c7ccc(C#N)c(Cl)c7)CC6)nn5)CC4)cc31)C(=O)N(C1CCC(=O)NC1=O)C2=O (some centres unmarked) [Compound 144]		86		
CCn1c2c(c3ccc(OCCCCN4CCN(c5ccc(C(=O)N[C@H]6CC[C@H](Oc7ccc(C#N)c(Cl)c7)CC6)nn5)CC4=O)cc31)C(=O)N(C1CCC(=O)NC1=O)C2=O (some centres unmarked) [Compound 149]		11		
CC(COc1ccc2c3c(n(C)c2c1)C(=O)N(C1CCC(=O)NC1=O)C3=O)CN1CCN(c2ccc(C(=O)N[C@H]3CC[C@H](Oc4ccc(C#N)c(Cl)c4)CC3)nn2)CC1 (some centres unmarked) [Compound 188]				25 to 100
CC(COc1ccc2c3c(n(C)c2c1)C(=O)N(C1CCC(=O)NC1=O)C3=O)CN1CC=C(c2ccc(C(=O)N[C@H]3CC[C@H](Oc4ccc(C#N)c(Cl)c4)CC3)nn2)CC1 (some centres unmarked) [Compound 200]				10 to 25
Cn1c2c(c3ccc(OCC4CCN(c5ccc(C(=O)N[C@H]6CC[C@H](Oc7ccc(C#N)c(Cl)c7)CC6)cn5)CC4)cc31)C(=O)N(C1CCC(=O)N(CO)C1=O)C2=O (some centres unmarked) [Compound 34]			75	
Cn1c2c(c3ccc(OCCN4CCN(c5ccc(C(=O)N[C@H]6C(C)(C)[C@H](Oc7ccc(C#N)c(Cl)c7)C6(C)C)nc5)CC4)cc31)C(=O)N(C1CCC(=O)NC1=O)C2=O (some centres unmarked) [Compound 9]			73	> 100

Structure (SMILES)	DC50 [1] [nM]	remaining activity at 0.1 µM [2] [%]	remaining activity at 0.1 µM [3] [%]	DC50 [4] [nM]
Cn1c2c(c3ccc(OCCCN4CCC5(CC4)CN(c4ccc(C(=O)N[C@H]6CC[C@H](Oc7ccc(C#N)c(Cl)c7)CC6)nn4)C5)cc31)C(=O)N(C1CCC(=O)NC1=O)C2=O (some centres unmarked) [Compound 92]			6	25 to 100
CCn1c2c(c3ccc(OCCOC4CC5(CCN(c6ccc(C(=O)N[C@H]7CC[C@H](Oc8ccc(C#N)c(Cl)c8)CC7)nn6)CC5)C4)cc31)C(=O)N(C1CCC(=O)NC1=O)C2=O (some centres unmarked) [Compound 147]	10 to 25	46		
CCn1c2c(c3ccc(OC4CCN(CC5CCN(c6ccc(C(=O)N[C@H]7C(C)(C)[C@H](Oc8ccc(C#N)c(Cl)c8)C7(C)C)nn6)CC5)CC4)cc31)C(=O)N(C1CCC(=O)NC1=O)C2=O (some centres unmarked) [Compound 212]	25 to 100			
CCn1c2c(c3ccc(OCCN4C5CCC4CN(c4ccc(C(=O)N[C@H]6CC[C@H](Oc7ccc(C#N)c(Cl)c7)CC6)nn4)C5)cc31)C(=O)N(C1CCC(=O)NC1=O)C2=O (some centres unmarked) [Compound 64]	25 to 100	40		
CCn1c2c(c3ccc(OCCCN4CCN(c5ccc(C(=O)N[C@H]6C(C)(C)[C@H](Oc7ccc(C#N)c(Cl)c7)C6(C)C)cc5)CC4)cc31)C(=O)N(C1CCC(=O)NC1=O)C2=O (some centres unmarked) [Compound 21]		92		
CCn1c2c(c3ccc(OCCN4CC=C(c5ccc(C(=O)N[C@H]6CC[C@H](Oc7ccc(C#N)c(Cl)c7)CC6)nn5)CC4)cc31)C(=O)N(C1CCC(=O)NC1=O)C2=O (some centres unmarked) [Compound 191]	< 10			
N#Cc1ccc(O[C@H]2CC[C@H](NC(=O)c3ccc(N4CCN(CCCOc5ccc6c7c(n(CO)c6c5)C(=O)N(C5CCC(=O)NC5=O)C7=O)CC4)nn3)CC2)cc1Cl (some centres unmarked) [Compound 85]	25 to 100	20		
CCn1c2c(c3ccc(OCCCN4C[C@H](C)N(c5ccc(C(=O)N[C@H]6CC[C@H](Oc7ccc(C#N)c(Cl)c7)CC6)nn5)C[C@H]4C)cc31)C(=O)N(C1CCC(=O)NC1=O)C2=O (some centres unmarked) [Compound 59]		66		
CCn1c2c(c3ccc(OCCN4CCN(c5ccc(C(=O)N[C@H]6CC[C@H](Oc7ccc(C#N)c(Cl)c7)CC6)nn5)[C@H](C)C4)cc31)C(=O)N(C1CCC(=O)NC1=O)C2=O (some centres unmarked) [Compound 99]	25 to 100	39		
CCn1c2c(c3ccc(OCCOC4CCN(c5ccc(C(=O)N[C@H]6CC[C@H](Oc7ccc(C#N)c(Cl)c7)CC6)nn5)CC4)cc31)C(=O)N(C1CCC(=O)NC1=O)C2=O (some centres unmarked) [Compound 153]	10 to 25	109		
Cn1c2c(c3cc(OCCN4CCN(c5ccc(C(=O)N[C@H]6C(C)(C)[C@H](Oc7ccc(C#N)c(Cl)c7)C6(C)C)cc5)CC4)ccc31)C(=O)N(C1CCC(=O)NC1=O)C2=O (some centres unmarked) [Compound 15]			106	
CCn1c2c(c3ccc(OCCN4CCC(c5ccc(C(=O)N[C@H]6CC[C@H](Oc7ccc(C#N)c(Cl)c7)CC6)nn5)CC4)cc31)C(=O)N(C1CCC(=O)NC1=O)C2=O (some centres unmarked) [Compound 206]	10 to 25			
CCn1c2c(c3ccc(OC4CCN(CC5CCN(c6ccc(C(=O)N[C@H]7CC[C@@H](Oc8ccc(C#N)c(Cl)c8)CC7)nn6)CC5)CC4)cc31)C(=O)N(C1CCC(=O)NC1=O)C2=O (some centres unmarked) [Compound 204]	10 to 25			
Cn1c2c(c3ccc(OC4CCN(CC5CCN(c6ccc(C(=O)N[C@H]7C(C)(C)[C@@H](Oc8ccc(C#N)c(Cl)c8)C7(C)C)cn6)CC5)CC4)cc31)C(=O)N(C1CCC(=O)NC1=O)C2=O (some centres unmarked) [Compound 222]				10 to 25
Cn1c2c(c3ccc(OCCOC4CCN(c5ccc(C(=O)N[C@H]6CC[C@H](N(C)c7ccc(C#N)c(Cl)c7)CC6)nn5)CC4)cc31)C(=O)N(C1CCC(=O)NC1=O)C2=O (some centres unmarked) [Compound 169]	10 to 25	27		
Cn1c2c(c3ccc(OCCCN4CCCN(c5ccc(C(=O)N[C@H]6CC[C@H](Oc7ccc(C#N)c(Cl)c7)CC6)nn5)CC4)cc31)C(=O)N(C1CCC(=O)NC1=O)C2=O (some centres unmarked) [Compound 87]			21	25 to 100
CCn1c2c(c3ccc(OCC(=O)N4CCC5(CC4)CN(c4ccc(C(=O)N[C@H]6CC[C@H](Oc7ccc(C#N)c(Cl)c7)CC6)nn4)C5)cc31)C(=O)N(C1CCC(=O)NC1=O)C2=O (some centres unmarked) [Compound 123]	> 100	33		
CC[C@H]1CN(CCCOc2ccc3c4c(n(CC)c3c2)C(=O)N(C2CCC(=O)NC2=O)C4=O)CCN1c1ccc(C(=O)N[C@H]2CC[C@H](Oc3ccc(C#N)c(Cl)c3)CC2)nn1 (some centres unmarked) [Compound 60]		57		
